Test results as given in PubChem BioAssay AID1963851 (Molecular Pharmacology Branch, DTP, NCI, 2024).

Tested on: 188146-221-R-J1-PDC complex spheroid viability
Assay: Anticancer human tumor 188146-221-R-J1-PDC patient-derived colon adenocarcinoma cell line growth inhibition [POLQ]
Details: for IC50: curve of first compound; for viability, T/C: stronger effect = lower value
Method in brief: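 Patient-derived tumour cells were co-cultured with HUVEC and mesenchymal stem cells as multicellular spheroids at 37 °C. They were treated with POLQ inhibitors (novobiocin, ART-558, RP6685) alone or combined with other agents. Top concentrations were at or near clinical Cmax (otherwise 10 microM; SN-38 at 1 microM), decreasing in half-log steps.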

[1] = second compound 0.0316 µM, first compound 0.0316 µM
[2] = second compound 0.0316 µM, first compound 0.1 µM
[3] = second compound 0.0316 µM, first compound 0.316 µM
[4] = second compound 0.0316 µM, first compound 1 µM
[5] = second compound 0.0316 µM, first compound 3.16 µM
[6] = second compound 0.0316 µM, first compound 10 µM
[7] = second compound 0.1 µM, first compound 0.0316 µM
[8] = second compound 0.1 µM, first compound 0.1 µM
[9] = second compound 0.1 µM, first compound 0.316 µM
[10] = second compound 0.1 µM, first compound 1 µM
[11] = second compound 0.1 µM, first compound 3.16 µM
[12] = second compound 0.1 µM, first compound 10 µM
[13] = second compound 0.316 µM, first compound 0.0316 µM
[14] = second compound 0.316 µM, first compound 0.1 µM
[15] = second compound 0.316 µM, first compound 0.316 µM
[16] = second compound 0.316 µM, first compound 1 µM
[17] = second compound 0.316 µM, first compound 3.16 µM
[18] = second compound 0.316 µM, first compound 10 µM
[19] = second compound 1 µM, first compound 0.0316 µM
[20] = second compound 1 µM, first compound 0.1 µM
[21] = second compound 1 µM, first compound 0.316 µM
[22] = second compound 1 µM, first compound 1 µM
[23] = second compound 1 µM, first compound 3.16 µM
[24] = second compound 1 µM, first compound 10 µM
[25] = second compound 3.16 µM, first compound 0.0316 µM
[26] = second compound 3.16 µM, first compound 0.1 µM
[27] = second compound 3.16 µM, first compound 0.316 µM
[28] = second compound 3.16 µM, first compound 1 µM
[29] = second compound 3.16 µM, first compound 3.16 µM
[30] = second compound 3.16 µM, first compound 10 µM
[31] = second compound 10 µM, first compound 0.0316 µM
[32] = second compound 10 µM, first compound 0.1 µM
[33] = second compound 10 µM, first compound 0.316 µM
[34] = second compound 10 µM, first compound 1 µM
[35] = second compound 10 µM, first compound 3.16 µM
[36] = second compound 10 µM, first compound 10 µM
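Further: spheroids exposed to compounds for seven days.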
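Wherever viability, T/C is given: 100% = DMSO vehicle control viability.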

## C#Cc1c(F)ccc2cc(O)cc(-c3ncc4c(N5CC6CCC(C5)N6)nc(OCC56CCCN5CC(F)C6)nc4c3F)c12 (stereo unspecified) + COC1C(OC(N)=O)C(O)C(Oc2ccc3c(O)c(NC(=O)c4ccc(O)c(CC=C(C)C)c4)c(=O)oc3c2C)OC1(C)C
Second compound 0.0316 µM
  IC50: > 10 µM
Second compound 0.1 µM
  IC50: > 10 µM
Second compound 0.316 µM
  IC50: > 10 µM
Second compound 1 µM
  IC50: > 10 µM
Second compound 3.16 µM
  IC50: > 10 µM
Second compound 10 µM
  IC50: > 10 µM
[1]
  viability, T/C: 105%
[2]
  viability, T/C: 93.5%
[3]
  viability, T/C: 100%
[4]
  viability, T/C: 100%
[5]
  viability, T/C: 103%
[6]
  viability, T/C: 83.1%
[7]
  viability, T/C: 122%
[8]
  viability, T/C: 94%
[9]
  viability, T/C: 92.5%
[10]
  viability, T/C: 95.9%
[11]
  viability, T/C: 85.2%
[12]
  viability, T/C: 93.5%
[13]
  viability, T/C: 113%
[14]
  viability, T/C: 95.9%
[15]
  viability, T/C: 102%
[16]
  viability, T/C: 92.8%
[17]
  viability, T/C: 92.5%
[18]
  viability, T/C: 103%
[19]
  viability, T/C: 112%
[20]
  viability, T/C: 96.1%
[21]
  viability, T/C: 100%
[22]
  viability, T/C: 90.5%
[23]
  viability, T/C: 93.8%
[24]
  viability, T/C: 88.8%
[25]
  viability, T/C: 106%
[26]
  viability, T/C: 103%
[27]
  viability, T/C: 110%
[28]
  viability, T/C: 87.2%
[29]
  viability, T/C: 104%
[30]
  viability, T/C: 82.6%
[31]
  viability, T/C: 100%
[32]
  viability, T/C: 98.6%
[33]
  viability, T/C: 108%
[34]
  viability, T/C: 97.2%
[35]
  viability, T/C: 95.6%
[36]
  viability, T/C: 92.8%

## O=C(Nc1ccc(O)c(NS(=O)(=O)c2ccc(F)cc2)c1)c1ccc(-c2ccccc2)cc1 + COC1C(OC(N)=O)C(O)C(Oc2ccc3c(O)c(NC(=O)c4ccc(O)c(CC=C(C)C)c4)c(=O)oc3c2C)OC1(C)C
Second compound 0.0316 µM
  IC50: > 10 µM
Second compound 0.1 µM
  IC50: > 10 µM
Second compound 0.316 µM
  IC50: > 10 µM
Second compound 1 µM
  IC50: > 10 µM
Second compound 3.16 µM
  IC50: > 10 µM
Second compound 10 µM
  IC50: > 10 µM
[1]
  viability, T/C: 104%
[2]
  viability, T/C: 95%
[3]
  viability, T/C: 99.7%
[4]
  viability, T/C: 97.6%
[5]
  viability, T/C: 86.5%
[6]
  viability, T/C: 89%
[7]
  viability, T/C: 106%
[8]
  viability, T/C: 104%
[9]
  viability, T/C: 96.5%
[10]
  viability, T/C: 99.4%
[11]
  viability, T/C: 98.8%
[12]
  viability, T/C: 75.2%
[13]
  viability, T/C: 95%
[14]
  viability, T/C: 108%
[15]
  viability, T/C: 101%
[16]
  viability, T/C: 100%
[17]
  viability, T/C: 88.2%
[18]
  viability, T/C: 69.4%
[19]
  viability, T/C: 102%
[20]
  viability, T/C: 96.2%
[21]
  viability, T/C: 105%
[22]
  viability, T/C: 101%
[23]
  viability, T/C: 94.4%
[24]
  viability, T/C: 79.5%
[25]
  viability, T/C: 105%
[26]
  viability, T/C: 106%
[27]
  viability, T/C: 108%
[28]
  viability, T/C: 88.7%
[29]
  viability, T/C: 97.4%
[30]
  viability, T/C: 73.1%
[31]
  viability, T/C: 96.9%
[32]
  viability, T/C: 95.8%
[33]
  viability, T/C: 113%
[34]
  viability, T/C: 102%
[35]
  viability, T/C: 103%
[36]
  viability, T/C: 83.3%

## COc1cccc2c1C(=O)c1c(O)c3c(c(O)c1C2=O)CC(O)(C(=O)CO)CC3OC1CC(N)C(O)C(C)O1 (stereo unspecified) + Cc1cccc(N(C)C(=O)C2C(O)CCN2c2nc(C)cc(C(F)(F)F)c2C#N)c1
Second compound 0.0316 µM
  IC50: 0.102 µM
Second compound 0.1 µM
  IC50: 0.146 µM
Second compound 0.316 µM
  IC50: 0.117 µM
Second compound 1 µM
  IC50: 0.117 µM
Second compound 3.16 µM
  IC50: 0.0979 µM
Second compound 10 µM
  IC50: 0.0754 µM
[1]
  viability, T/C: 83.8%
[2]
  viability, T/C: 48%
[3]
  viability, T/C: 31.3%
[4]
  viability, T/C: 9.29%
[5]
  viability, T/C: 0.34%
[6]
  viability, T/C: 0.84%
[7]
  viability, T/C: 75.1%
[8]
  viability, T/C: 56.8%
[9]
  viability, T/C: 34.5%
[10]
  viability, T/C: 8.42%
[11]
  viability, T/C: 0.28%
[12]
  viability, T/C: 0.45%
[13]
  viability, T/C: 81%
[14]
  viability, T/C: 48.9%
[15]
  viability, T/C: 36.7%
[16]
  viability, T/C: 10%
[17]
  viability, T/C: 0.19%
[18]
  viability, T/C: 0.47%
[19]
  viability, T/C: 74%
[20]
  viability, T/C: 51%
[21]
  viability, T/C: 32.6%
[22]
  viability, T/C: 10.9%
[23]
  viability, T/C: 0.17%
[24]
  viability, T/C: 0.44%
[25]
  viability, T/C: 69.8%
[26]
  viability, T/C: 47.2%
[27]
  viability, T/C: 29.8%
[28]
  viability, T/C: 6.51%
[29]
  viability, T/C: 0.32%
[30]
  viability, T/C: 0.65%
[31]
  viability, T/C: 74.8%
[32]
  viability, T/C: 39.5%
[33]
  viability, T/C: 26.4%
[34]
  viability, T/C: 3.83%
[35]
  viability, T/C: 0.3%
[36]
  viability, T/C: 0.64%
